Data: ChEMBL document CHEMBL1121547 (J Med Chem, 1980)

Legend:
[1] = biological target: Gamma-aminobutyric acid receptor subunit gamma-1 (Rattus norvegicus, UniProt P23574); experiment: […] of [3H]GABA at Gamma-aminobutyric acid receptor in rat brain membranes at 0.01 uM; format: cell membranes
[2] = biological target: GABA-A receptor; anion channel (Rattus norvegicus) (UniProt O09028+P15431+P18506+P18508+P19969+P20236+P23574+P23576+P28471+P28473+P30191+P62813+P63079+P63138+Q91ZM7+Q9ES14); experiment: Relative binding affinity for sodium-independent Gamma-aminobutyric acid receptor synaptic membrane binding site in rat brain tissue; format: tissue-based
[3] = biological target: GABA-A receptor; anion channel; experiment: Displacement of [3H]gamma-aminobutyric acid from sodium-independent Gamma-aminobutyric acid (GABA-A) receptor synaptic membrane binding sites from rat brain tissue

Chain of Gamma-aminobutyric acid receptor subunit gamma-1 (P23574 whole entry): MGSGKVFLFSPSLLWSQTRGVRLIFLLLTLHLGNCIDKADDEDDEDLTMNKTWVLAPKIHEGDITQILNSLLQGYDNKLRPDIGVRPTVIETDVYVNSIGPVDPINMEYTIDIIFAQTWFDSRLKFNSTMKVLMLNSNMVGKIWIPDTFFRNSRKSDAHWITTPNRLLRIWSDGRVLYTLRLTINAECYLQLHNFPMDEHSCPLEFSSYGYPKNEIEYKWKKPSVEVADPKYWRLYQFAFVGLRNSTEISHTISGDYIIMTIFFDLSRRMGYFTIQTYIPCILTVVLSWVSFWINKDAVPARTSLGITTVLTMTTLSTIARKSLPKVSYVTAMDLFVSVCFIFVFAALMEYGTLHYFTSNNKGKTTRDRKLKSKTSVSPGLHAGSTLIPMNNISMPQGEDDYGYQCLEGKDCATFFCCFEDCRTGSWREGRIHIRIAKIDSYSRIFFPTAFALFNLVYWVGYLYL

SMILES | IC50 [1] | Relative affinity [2] | IC50 ([3]; read-out: IC50) | IC50 [3]
CN1CCc2cc3c(cc2[C@H]1[C@@H]1OC(=O)c2c1ccc1c2OCO1)OCO3 [BICUCULLINE] | 3800 nM | 0.0056 | – | –
NCc1cc(=O)[nH]o1 [MUSCIMOL] | – | – | 3.2 nM | –
NCc1cc(O)no1 | – | 6.3 | – | –
NCC1CCC1C(=O)O (racemic) | – | 6.9 | – | 0.00029 M l-1
